# Assay results taken from US20100285959A1, “HERBICIDAL MIXTURES” (priority 2006, published 2010).
# How the values were obtained:
# [1] = test system: redroot pigweed (AMARE); experiment: Test 25 field trial, postemergence, growth as percent of control; format: in vivo, Amaranthus retroflexus
# From the text: Corn seeds (hybrid ‘Pioneer 31G96 RR’) were planted in mid spring season, 3.8 cm deep in a clay loam soil having 2% organic matter and a pH of 6.6. Plots were 6.1 m long by 3.0 m wide with rows spaced 76 cm apart. Seeds were spaced 15 cm apart within the rows. The field was managed using conventional tillage practices. […] Giant ragweed and Pennsylvania smartweed could only be evaluated 14 days after application. […] Results are the means of the three replicates. This growth inhibition data was converted to results in the form of “plant growth as a percent of control plant growth” using the calculation “100 minus growth inhibition”.
# When this form of Colby's Equation is used, if the observed effects on weeds are less than the expected values, the mixture is synergistic.
# [2] = test system: wild buckwheat (POLCO); experiment: Test 24 growth chamber, postemergence; format: in vivo, Polygonum convolvulus; conditions: 17 DAA
# Protocol: (§1) Plants were treated postemergence at the 2-4 leaf growth stage, and each treatment was replicated three times. […] Plants were watered as needed. […] Results for barley and wheat are the means across varieties of the three replicates, and results for the weeds are the means of the three replicates.
# [3] = test system: winter barley (HORVW); experiment: Test 24 growth chamber, postemergence; format: in vivo, Hordeum vulgare; conditions: 17 DAA
# Protocol: as §1
# [4] = test system: winter wheat (TRZAW); experiment: Test 27 field trial, postemergence; format: in vivo, Triticum aestivum; parameters: scale not given here
# From the text: Wheat seeds (cv. ‘Custer’) were planted in late fall season in a clay loam soil. Plots were 9 m long by 1.8 m wide. The field was managed using conventional tillage practices. […] All treatments also included a surfactant. […] Results are the means of the three replicates.
# [5] = test system: Russian thistle (SASKR); experiment: Test 4 field trial, postemergence; format: in vivo, Salsola kali; parameters: scale not given here
# Protocol: A field trial was conducted to evaluate the effects of mixtures of Compound 2 with commercial herbicides on spring wheat (TRZAS, Triticum aestivum L.) and several weed species. Wheat seeds (cv. ‘AC Intrepid’) were planted in late spring season, 3.8 cm deep in a loam soil having 2.7% organic matter and a pH of 7. Plots were 6 m long by 2.5 m wide. The field was managed using no-till practices. The plots were arranged in a randomized complete block design with each treatment being replicated four times. Treatments were applied postemergence 25 days after planting using a backpack sprayer delivering a spray volume of 55 L/ha using a pressure of 276 kPa. […] Compound 2 and clodinafop treatments, alone and in combination, also included a surfactant. Weed species present in the experimental plots in sufficient quantity to be evaluated included wild oat (AVEFA, Avena fatua L.), common lambsquarters (CHEAL, Chenopodium album L.), kochia (KCHSC, Kochia scoparia (L.) Schrad.), wild buckwheat (POLCO, Polygonum convolvulus L.), Russian thistle (SASKR, Salsola kali L. ssp. ruthenica (Iljin) Soo), and field pennycress (THLAR, Thlaspi arvense L.). […] Common lambsquarters was evaluated only at 14 days after application. […] Results are the means of the four replicates.
# [6] = test system: dry-seeded rice (ORYSA); experiment: Test 28 greenhouse, postemergence; format: in vivo, Oryza sativa; conditions: 26 DAA
# Protocol: (§2) A greenhouse test was conducted to evaluate the effects on the plant species corn (ZEAMD, Zea mays ssp. indentata), sorghum (SORVU, Sorghum vulgare L.), dry-seeded rice (ORYSA, Oryza sativa L.), wheat (TRZAW, Triticum aestivum L.), ivyleaf morningglory (IPOHE, Ipomoea hederacea (L.) JACQ.), and barnyardgrass (ECHCG, Echinochloa crus-galli (L.) P. BEAUV.), of mixtures of Compound 2 with isoxadifen-ethyl. Corn, sorghum, rice, wheat, ivyleaf morningglory and barnyardgrass seeds were planted in RediEarth, a commercial potting medium. […] Corn plants were treated postemergence at the V2 growth stage, and sorghum, rice, wheat, ivyleaf morningglory, and barnyardgrass plants were treated postemergence at the 3-leaf stage. […] Each treatment was replicated three times. […] Plants were watered as needed.
# [7] = test system: winter wheat (TRZAW); experiment: Test 24 growth chamber, postemergence; format: in vivo, Triticum aestivum; conditions: 17 DAA
# Protocol: as §1
# [8] = test system: wheat (TRZAW); experiment: Test 28 greenhouse, post- and preemergence; format: in vivo, Triticum aestivum; conditions: 26 DAA
# Protocol: as §2
# [9] = test system: oak species (QUESS); experiment: Test 13 field trial, postemergence, brush weeds; format: in vivo, Quercus L. spp.; conditions: 56 DAA; g a.i./ha: Cpd 2 250; Fosamine-ammonium 6700
# From the text: (§3) Plots were established in non-crop land and were 6.1 m long by 3.0 m wide. […] Treatments were applied postemergence to the brush weeds using a backpack sprayer delivering a spray volume of 468 L/ha using a pressure of 241 kPa. […] All treatments also included a surfactant. […] Results are the means of the three replicates.
# [10] = test system: mixed hardwoods (MXDSP); experiment: Test 13 field trial, postemergence, brush weeds; format: in vivo, Nyssa sylvatica, Acer rubrum, Liquidambar styraciflua; conditions: 56 DAA; g a.i./ha: Cpd 2 250; Fosamine-ammonium 6700
# From the text: as §3
smiles,measurement,setting,value
"COC(=O)c1nc(C2CC2)nc(N)c1Cl [Compound 2, methyl 6-amino-5-chloro-2-cyclopropyl-4-pyrimidinecarboxylate]",AMARE Obs (percent of control),"[1]; Cpd 2 15 g a.i./ha, 14 DAA",47%
same,AMARE Obs (percent of control),"[1]; Cpd 2 15 g a.i./ha, 28 DAA",38%
same,AMARE Obs (percent of control),"[1]; Cpd 2 15 g a.i./ha, 56 DAA",0%
same,AMARE Obs (percent of control),"[1]; Cpd 2 30 g a.i./ha, 14 DAA",35%
same,AMARE Obs (percent of control),"[1]; Cpd 2 30 g a.i./ha, 28 DAA",22%
same,AMARE Obs (percent of control),"[1]; Cpd 2 30 g a.i./ha, 56 DAA",0%
same,AMARE Obs (percent of control),"[1]; Cpd 2 45 g a.i./ha, 14 DAA",28%
same,AMARE Obs (percent of control),"[1]; Cpd 2 45 g a.i./ha, 28 DAA",20%
same,AMARE Obs (percent of control),"[1]; Cpd 2 45 g a.i./ha, 56 DAA",28%
same,POLCO Obs (scale 0 to 100),[2]; Cpd 2 4 g a.i./ha,55
same,POLCO Obs (scale 0 to 100),[2]; Cpd 2 8 g a.i./ha,60
same,POLCO Obs (scale 0 to 100),[2]; Cpd 2 16 g a.i./ha,70
same,HORVW Obs (scale 0 to 100),[3]; Cpd 2 4 g a.i./ha,19
same,HORVW Obs (scale 0 to 100),[3]; Cpd 2 8 g a.i./ha,28
same,HORVW Obs (scale 0 to 100),[3]; Cpd 2 16 g a.i./ha,37
same,TRZAW Obs,"[4]; 16 DAA, 15 g a.i./ha",2
same,TRZAW Obs,"[4]; 16 DAA, 30 g a.i./ha",10
same,TRZAW Obs,"[4]; 16 DAA, 45 g a.i./ha",17
same,TRZAW Obs,"[4]; 28 DAA, 15 g a.i./ha",0
same,TRZAW Obs,"[4]; 28 DAA, 30 g a.i./ha",12
same,TRZAW Obs,"[4]; 28 DAA, 45 g a.i./ha",25
same,TRZAW Obs,"[4]; 49 DAA, 15 g a.i./ha",3
same,TRZAW Obs,"[4]; 49 DAA, 30 g a.i./ha",17
same,TRZAW Obs,"[4]; 49 DAA, 45 g a.i./ha",35
same,SASKR Obs,"[5]; 14 DAA, Cpd 2 30 g a.i./ha alone or with clodinafop 56 or fenoxaprop 90",88
same,SASKR Obs,"[5]; 14 DAA, Cpd 2 60 g a.i./ha alone or with clodinafop 56 or fenoxaprop 90",91
same,SASKR Obs,"[5]; 35 DAA, Cpd 2 30 g a.i./ha alone or with clodinafop 56 or fenoxaprop 90",99
same,SASKR Obs,"[5]; 35 DAA, Cpd 2 60 g a.i./ha alone",95
same,ORYSA Obs,[6]; Cpd 2 32 g a.i./ha,60
same,ORYSA Obs,[6]; Cpd 2 64 g a.i./ha,83
same,TRZAW Obs (scale 0 to 100),[7]; Cpd 2 4 g a.i./ha,21
same,TRZAW Obs (scale 0 to 100),[7]; Cpd 2 8 g a.i./ha,33
same,TRZAW Obs (scale 0 to 100),[7]; Cpd 2 16 g a.i./ha,39
same,TRZAW Obs,"[8]; postemergence, Cpd 2 32 g a.i./ha",80%
same,TRZAW Obs,"[8]; postemergence, Cpd 2 64 g a.i./ha",90%
same,TRZAW Obs,"[8]; preemergence, Cpd 2 32 g a.i./ha",0%
same,TRZAW Obs,"[8]; preemergence, Cpd 2 64 g a.i./ha",27%
same,QUESS Obs,[9],33
same,MXDSP Obs,[10],45
